Test results reported in patent US9415087B2, “Compositions and methods for treating coronavirus infection” (LUDWIG-MAXIMILIANS-UNIVERSITAET MUENCHEN, priority 2014, dated 2016).
Entries after “also recorded” stand apart in the source; their conditions may differ. Read-outs that look alike come from different tables or passages of the source.

Legend:
NFAT = NFAT reporter gene assay (luciferase) in Jurkat cells; type: cell-based; conditions: luciferase-coupled NFAT reporter gene assay; for IC50: read-out: In vitro inhibition NFAT reporter gene assay IC50
human CypA = human CypA (Homo sapiens, UniProt P62937); type: biochemical; conditions: protease-coupled PPIase assay; read-out: In vitro inhibition human CypA IC50
CnA = CnA (Homo sapiens, UniProt P62937+P63098+Q08209); type: biochemical; conditions: for IC50: read-out: In vitro inhibition CnA IC50
NFAT-GFP = NFAT-GFP nuclear translocation assay; conditions: 40 nM compound, ionomycin 2 μM; yes = non-immunosuppressive
HCoV-NL63 = assay: microbe, parasite or virus in culture; type: cell-based; conditions: read-out: Inhibition of HCoV-NL63 in CaCo-2 EC50
HCoV-229E N protein = type: cell-based; conditions: 48 h
SARS-CoV-Replicon RNA = type: cell-based; conditions: BHK-21 cells, 20 hours, FIG. 11
[1] = test system: Mouse Hepatitis Virus (MHV-LUC); assay: MHV-LUC replication in L929 cells, luciferase activity; conditions: micromolar concentration, FIG. 12
HCoV-229E-LUC = assay: microbe, parasite or virus in culture; type: cell-based; conditions: for inhibition of 229E-LUC replication (in words): Huh-7.5 cells
HCoV-NL63 N protein = assay: Western blot of N protein expression in HCoV-NL63-infected CaCo2 cells; type: cell-based; conditions: 48 hours, 0 to 20 μM
[2] = test system: Feline Coronavirus (FCoV-LUC); assay: FCoV-LUC replication in Felis catus whole fetus (fcwf) cells, Renilla luciferase; type: cell-based; conditions: micromolar concentration, FIG. 10
lymphocyte proliferation = conditions: Sadeg et al. 1993; cited from earlier work
[3] = Human coronavirus 229E, Huh7.5, 18 h, read-out: EC50 HCoV-229E-LUC, 18 hrs p.I., Huh-7.5, MOI=0.1
[4] = Human coronavirus 229E, Huh7.5, 48 h, read-out: EC50 HCoV-229E-LUC, 48 hrs p.I., Huh-7.5, MOI=0.1
[5] = Human coronavirus NL63, Caco-2, 48 h

Chain of human CypA (P62937 whole entry): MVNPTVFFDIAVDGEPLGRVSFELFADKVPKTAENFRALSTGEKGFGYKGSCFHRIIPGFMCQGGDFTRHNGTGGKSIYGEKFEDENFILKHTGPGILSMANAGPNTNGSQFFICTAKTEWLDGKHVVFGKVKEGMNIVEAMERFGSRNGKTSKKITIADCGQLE
Chain of CnA (P62937 whole entry, other chains not shown): as the sequence (P62937 whole entry) above
Chain of CnA (P63098 2-170, other chains not shown): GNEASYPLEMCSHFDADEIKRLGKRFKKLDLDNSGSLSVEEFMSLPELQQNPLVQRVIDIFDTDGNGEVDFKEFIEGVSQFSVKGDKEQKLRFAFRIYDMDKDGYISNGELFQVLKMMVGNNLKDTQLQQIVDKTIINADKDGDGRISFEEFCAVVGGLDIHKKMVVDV

| Compound | IC50 (human CypA) [nM] | NFAT-GFP translocation in HEK-293 cells (to the nucleus) (NFAT-GFP) | EC50 (HCoV-NL63) [nM] | inhibition of 229E-LUC replication (in words) (HCoV-229E-LUC) | EC50 (HCoV-229E-LUC; [3]) [nM] | EC50 (HCoV-229E-LUC; [4]) [nM] | concentration at which HCoV-NL63 N-protein decreases (HCoV-NL63 N protein) [µM] | EC50 (HCoV-NL63; [5]) [nM] | other results |
| --- | --- | --- | --- | --- | --- | --- | --- | --- | --- |
| CCOP(=O)(CC=CCC(C)C(O)C1C(=O)NC(CC)C(=O)N(C)CC(=O)N(C)C(CC(C)C)C(=O)NC(C(C)C)C(=O)N(C)C(CC(C)C)C(=O)NC(C)C(=O)NC(C)C(=O)N(C)C(CC(C)C)C(=O)N(C)C(CC(C)C)C(=O)N(C)C(C(C)C)C(=O)N1C)OCC (mixture of isomers) [Compound 1] | 9.1 | yes | 1600 | – | – | – | – | – | In vitro inhibition NFAT reporter gene assay IC50 (NFAT): no; In vitro inhibition CnA IC50 (CnA; binary PPIase/drug complexes): could not be inhibited at all and no |
| C/C=C/C[C@@H](C)[C@@H](O)[C@H]1C(=O)N[C@@H](CC)C(=O)N(C)[C@H](C)C(=O)N(CC)[C@@H](C(C)C)C(=O)N[C@@H](C(C)C)C(=O)N(C)[C@@H](CC(C)C)C(=O)N[C@@H](C)C(=O)N[C@H](C)C(=O)N(C)[C@@H](CC(C)C)C(=O)N(C)[C@@H](CC(C)C)C(=O)N(C)[C@@H](C(C)C)C(=O)N1C [ALV, Alisporivir] | – | yes | – | low micromolar range | 2770 | 1370 | 1.25 | 800 | concentration at which HCoV-229E N protein is not detectable anymore (HCoV-229E N protein; Western blot): 1.25 µM; inhibition of SARS-CoV-RNA replicon propagation (in words) (SARS-CoV-Replicon RNA): inhibition; inhibition of murine Coronavirus spread (in words) [1]: inhibits spread; inhibition of feline Coronavirus spread (in words) [2]: inhibits spread |
| CCC1NC(=O)C(C(O)C(C)CC=CCN(C)C)N(C)C(=O)C(C(C)C)N(C)C(=O)C(CC(C)C)N(C)C(=O)C(CC(C)C)N(C)C(=O)C(C)NC(=O)C(C)NC(=O)C(CC(C)C)N(C)C(=O)C(C(C)C)NC(=O)C(CC(C)C)N(C)C(=O)CN(C)C1=O (centres unmarked) [Compound 2] | – | yes | 7900 | – | – | – | – | – | – |
| CCC1NC(=O)C(C(O)C(C)Cc2nc3ccc(C(=O)OC)cc3[nH]2)N(C)C(=O)C(C(C)C)N(C)C(=O)C(CC(C)C)N(C)C(=O)C(CC(C)C)N(C)C(=O)C(C)NC(=O)C(C)NC(=O)C(CC(C)C)N(C)C(=O)C(C(C)C)NC(=O)C(CC(C)C)N(C)C(=O)CN(C)C1=O (centres unmarked) [Compound 3] | 11.9 | yes | 1100 | low micromolar range | – | – | 1.25 | – | IC50 (CnA): 6.9 µM; EC50 (HCoV-229E-LUC; 18 hrs p.I., Huh-7.5, MOI=0.1, read-out: EC50 HCoV-229E-LUC): 2050 nM; EC50 (HCoV-229E-LUC; 48 hrs p.I., Huh-7.5, MOI=0.1, listed as Comp. 3, read-out: EC50 HCoV-229E-LUC): 920 nM; EC50 (HCoV-229E-LUC; 48 hrs p.I., Huh-7.5, MOI=0.1, read-out: EC50 HCoV-229E-LUC): 970 nM |
| CCC1NC(=O)C(C(O)C(C)Cc2nc3ccc(C(=O)c4ccccc4)cc3[nH]2)N(C)C(=O)C(C(C)C)N(C)C(=O)C(CC(C)C)N(C)C(=O)C(CC(C)C)N(C)C(=O)C(C)NC(=O)C(C)NC(=O)C(CC(C)C)N(C)C(=O)C(C(C)C)NC(=O)C(CC(C)C)N(C)C(=O)CN(C)C1=O (centres unmarked) [Compound 4] | 14.1 | yes | 8100 | – | – | – | – | – | IC50 (NFAT): 1300 nM; IC50 (CnA; binary PPIase/drug complexes): ~10 µM |
| CCC1NC(=O)C(C(O)C(C)Cc2nc3ccc(-c4nc5ccccc5s4)cc3[nH]2)N(C)C(=O)C(C(C)C)N(C)C(=O)C(CC(C)C)N(C)C(=O)C(CC(C)C)N(C)C(=O)C(C)NC(=O)C(C)NC(=O)C(CC(C)C)N(C)C(=O)C(C(C)C)NC(=O)C(CC(C)C)N(C)C(=O)CN(C)C1=O (centres unmarked) [Compound 5] | 16.6 | yes | 2300 | – | – | – | – | – | IC50 (NFAT): 1200 nM; IC50 (CnA; binary PPIase/drug complexes): > 10 µM |
| C/C=C/C[C@@H](C)[C@@H](O)[C@H]1C(=O)N[C@@H](C(C)C)C(=O)N(C)CC(=O)N(C)[C@@H](CC(C)C)C(=O)N[C@@H](C(C)C)C(=O)N(C)[C@@H](CC(C)C)C(=O)N[C@@H](C)C(=O)N[C@H](C)C(=O)N(C)[C@@H](CC(C)C)C(=O)N(C)[C@@H](CC(C)C)C(=O)N(C)[C@@H](C(C)C)C(=O)N1C [CsD] | – | remained in the cytoplasm and no | 2500 | – | – | – | – | – | immunosuppressant activity in lymphocyte proliferation assays relative to CsA (lymphocyte proliferation): about 10 % of the CsA activity |
| C/C=C/C[C@@H](C)[C@@H](O)[C@H]1C(=O)N[C@@H](CC)C(=O)N(C)CC(=O)N(C)[C@@H](CC(C)C)C(=O)N[C@@H](C(C)C)C(=O)N(C)[C@@H](CC(C)C)C(=O)N[C@@H](C)C(=O)N[C@H](C)C(=O)N(C)[C@@H](CC(C)C)C(=O)N(C)[C@@H](CC(C)C)C(=O)N(C)[C@H](C(C)C)C(=O)N1C [CsH, Cyclosporin H] | – | – | – | slight residual inhibitory activity; also recorded: do not inhibit | – | – | – | – | HCoV-229E N protein synthesis (in words) (HCoV-229E N protein; at 20 μM): allow significant N protein synthesis |
| C=CC[C@@H]1/C=C(\C)C[C@H](C)C[C@H](OC)[C@H]2O[C@@](O)(C(=O)C(=O)N3CCCC[C@H]3C(=O)O[C@H](/C(C)=C/[C@@H]3CC[C@@H](O)[C@H](OC)C3)[C@H](C)[C@@H](O)CC1=O)[C@H](C)C[C@@H]2OC [FK506] | – | – | – | – | 2960 | 860 | – | 6600 | – |
| C/C=C/C[C@@H](C)[C@@H](O)[C@H]1C(=O)N[C@@H](CC)C(=O)N(C)CC(=O)N(C)[C@@H]([C@@H](C)CC)C(=O)N[C@@H](C(C)C)C(=O)N(C)[C@@H](CC(C)C)C(=O)N[C@@H](C)C(=O)N[C@H](C)C(=O)N(C)[C@@H](CC(C)C)C(=O)N(C)[C@@H](CC(C)C)C(=O)N(C)[C@@H](C(C)C)C(=O)N1C [NIM811] | – | yes | – | low micromolar range | 3110 | 1190 | 1.25 | 800 | inhibition of SARS-CoV-RNA replicon propagation (in words) (SARS-CoV-Replicon RNA): inhibition; inhibition of murine Coronavirus spread (in words) [1]: inhibits spread; inhibition of feline Coronavirus spread (in words) [2]: inhibits spread |
